Experimental data published in US20250296938A1, “Compounds that Interact with the Ras Superfamily for the Treatment of Cancers, Inflammatory Diseases, Rasopathies, and Fibrotic Disease” (SHY Therapeutics, LLC, priority 2018, published 2025).

Key:
MEK phosphorylation [1] = test: Western MEK cell-based phosphorylation assay, MIA PaCa-2; conditions: Homo sapiens
Protocol: (§1) Cell lines: Human NSCLC cells NCI-H1975 and tumor-derived pancreatic cancer cell lines Panc-1 and MIA-PaCa-2 were all purchased from American Type Culture Collection and grown in complete RPMI medium (NCI-H1975) or DMEM-High Glucose (Panc1 and MIA-PaCa-2), supplemented with penicillin (100 U/mL), streptomycin (100 μg/mL), and 10% heat-inactivated FBS at 37° C. in a humidified incubator with 5% CO2.
(§2) Method: Cells were plated at 350000 cells/well density in a 12-well plate, allowed 3 hours to adhere to the plate, then starved in the appropriate medium in the presence of 0.5% FBS overnight. The small molecules to be tested were added to the cells in the final concentration of 10 μM in the presence of 0.3% DMSO for 6 hours incubation at 37° C. […] Protein concentration was assessed by BCA protein assay (Thermo Scientific). Phosphorylation level of MEK was determined by western blot.
(§3) Western blot protocol: Equal amounts of protein (15-50 μg) were separated by SDS-PAGE and transferred to nitrocellulose membranes (Invitrogen by Thermo Fisher Scientific). […] Membranes were blocked with 10% milk and phosphorylation levels of MEK were assessed by incubating overnight at 4° C. with anti-phospho-MEK 1/2 (Ser217/Ser221) antibody (Cell Signaling) followed by HRP-conjugated secondary antibody (Jackson Immunoresearch, West Grove, PA). […]

MEK phosphorylation [2] = test: Western MEK cell-based phosphorylation assay, PANC-1; conditions: Homo sapiens
Protocol: as §1
Method: Cells were plated at 350000 cells/well density in a 12-well plate, allowed 3 hours to adhere to the plate, then starved in the appropriate medium in the presence of 0.5% FBS overnight. The small molecules to be tested were added to the cells in the final concentration of 10 μM in the presence of 0.3% DMSO for 6 hours incubation at 37° C. For IC50 value determination, serial dilutions of compounds were added to cells under the same conditions. Next, cells were stimulated with 1.5 ng/ml EGF for 15 minutes then cells were lysed with lysis buffer containing 1% Triton X-100, EDTA, and Halt™ Protease & Phosphatase Inhibitor Cocktail (Thermo Scientific). Protein concentration was assessed by BCA protein assay (Thermo Scientific). Phosphorylation level of MEK was determined by western blot.
Western blot protocol: Equal amounts of protein (15-50 μg) were separated by SDS-PAGE and transferred to nitrocellulose membranes (Invitrogen by Thermo Fisher Scientific). The membrane was stained with Ponceau S Stain (Boston BioProducts) to verify uniform protein loading. Membranes were blocked with 10% milk and phosphorylation levels of MEK were assessed by incubating overnight at 4° C. with anti-phospho-MEK 1/2 (Ser217/Ser221) antibody (Cell Signaling) followed by HRP-conjugated secondary antibody (Jackson Immunoresearch, West Grove, PA). Bands were incubated in Amersham ECL Prime Western Blotting Detection Reagent (GE Healthcare) and visualized using the ChemiDoc MP imaging system (Bio-Rad).

MEK phosphorylation [3] = test: Western MEK cell-based phosphorylation assay, NCI H1975; conditions: Homo sapiens
Protocol: as §1, §2, §3

Rho-A [4] = target: T1, Rho-A (Homo sapiens, UniProt P61586); test: Scintillation Proximity Assay (SPA), GTP affinity; assay type: binding
T1 sequence (P61586 whole entry): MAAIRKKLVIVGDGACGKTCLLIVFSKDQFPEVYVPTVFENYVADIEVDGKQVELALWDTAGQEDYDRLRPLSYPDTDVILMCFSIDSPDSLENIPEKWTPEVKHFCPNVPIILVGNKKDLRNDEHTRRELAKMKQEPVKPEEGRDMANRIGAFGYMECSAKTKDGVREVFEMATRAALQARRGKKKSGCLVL

Rac-1 [5] = target: T2, Rac-1 (Homo sapiens, UniProt P63000); test: Scintillation Proximity Assay (SPA), GTP affinity; assay type: binding
K-Ras (Q61H) [6] = target: T3, K-Ras (Q61H) (Homo sapiens, UniProt P01116, Q61H); test: Scintillation Proximity Assay (SPA), GTP affinity; assay type: binding
T3 sequence (P01116 1-188 isoform P01116-2 Q61H): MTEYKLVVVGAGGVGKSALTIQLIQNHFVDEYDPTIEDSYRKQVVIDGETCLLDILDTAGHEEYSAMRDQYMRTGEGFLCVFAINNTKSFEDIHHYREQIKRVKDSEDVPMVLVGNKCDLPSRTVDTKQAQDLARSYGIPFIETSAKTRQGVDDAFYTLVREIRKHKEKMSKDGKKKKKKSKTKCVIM
Excerpt: (§4) As disclosed in International Application No. PCT/US2018/038613 and U.S. patent application Ser. No. 16/013,872, the affinity of GTP for the GTP binding domain of K-Ras utilizing a Scintillation Proximity Assay (SPA) and MicroScale Thermophoresis (MST) has been measured. These methods were not available when Wittinghofer and colleagues undertook their studies.
(§5) This therefore led to the novel, unanticipated conclusion that compounds such as small molecules could be discovered that would bind to a Ras GTP binding domain and compete with the binding of GTP to Ras.
(§6) See Khawaja et al., “Scintillation proximity assay in lead discovery”, Expert Opin. Drug Discov., 2008 November; 3 (11): 1267-80 regarding SPA procedures. See the following references regarding MST technology: Wienken et al., Nature Communications (2010), Protein binding assays in biological liquids using MicroScale Thermophoresis; Jerabek-Willemsen et al., ASSAY and Drug Development Technologies (2011), Molecular interaction studies using MicroScale Thermophoresis; Lin et al., Cell (2012), Inhibition of basal FGF receptor signaling by dimeric Grb2; Seidel et al., Angewandte Chemie (2012), Label-Free MicroScale Thermophoresis discriminates sites and affinity of protein-ligand binding; Seidel et al., Methods (2012), MicroScale Thermophoresis quantifies biomolecular interactions under previously challenging conditions; Parker & Newstead, Nature (2014), Molecular basis of nitrate uptake by the plant nitrate transporter NRT1.1; and Jerabek-Willemsen et al., Journal of Molecular Structure (2014), MicroScale Thermophoresis: Interaction analysis and beyond.

K-Ras (wild type) [7] = target: T4, K-Ras (wild type) (Homo sapiens, UniProt P01116); test: Scintillation Proximity Assay (SPA), GTP affinity; assay type: binding
T4 sequence (P01116 1-188 isoform P01116-2): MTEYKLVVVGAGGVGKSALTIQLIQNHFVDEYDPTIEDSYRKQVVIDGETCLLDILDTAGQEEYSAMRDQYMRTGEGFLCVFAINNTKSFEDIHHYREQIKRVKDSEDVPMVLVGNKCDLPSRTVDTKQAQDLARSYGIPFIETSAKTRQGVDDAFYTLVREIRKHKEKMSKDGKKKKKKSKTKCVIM
Excerpt: as §4, §5, §6

K-Ras (G12D) [8] = target: T5, K-Ras (G12D) (Homo sapiens, UniProt P01116, G12D); test: Scintillation Proximity Assay (SPA), GTP affinity; assay type: binding
T5 sequence (P01116 1-188 isoform P01116-2 G12D): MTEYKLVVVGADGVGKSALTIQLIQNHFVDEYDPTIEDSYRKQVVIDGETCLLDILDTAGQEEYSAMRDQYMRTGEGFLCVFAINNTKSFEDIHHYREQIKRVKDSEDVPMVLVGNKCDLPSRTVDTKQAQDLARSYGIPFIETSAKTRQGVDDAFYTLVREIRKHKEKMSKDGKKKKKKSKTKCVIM
Excerpt: as §4, §5, §6

K-Ras (G12C) [9] = target: T6, K-Ras (G12C) (Homo sapiens, UniProt P01116, G12C); test: Scintillation Proximity Assay (SPA), GTP affinity; assay type: binding
T6 sequence (P01116 1-188 isoform P01116-2 G12C): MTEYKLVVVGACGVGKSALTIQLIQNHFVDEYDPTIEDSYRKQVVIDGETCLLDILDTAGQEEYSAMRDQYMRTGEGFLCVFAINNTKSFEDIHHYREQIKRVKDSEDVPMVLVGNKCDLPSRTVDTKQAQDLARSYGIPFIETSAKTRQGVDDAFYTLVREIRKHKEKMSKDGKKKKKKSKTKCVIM
Excerpt: as §4, §5, §6

K-Ras GTP binding domain = test: SPA and MST studies, GTP affinity across wild type and mutant K-Ras
Excerpt: as §5, §6

Rac-1 [10] = target: T2, Rac-1; test: MicroScale Thermophoresis (MST), GTP affinity; assay type: binding
K-Ras (Q61H) [11] = target: T3, K-Ras (Q61H); test: MicroScale Thermophoresis (MST), GTP affinity; assay type: binding
Excerpt: as §4, §5, §6

K-Ras (wild type) [12] = target: T4, K-Ras (wild type); test: MicroScale Thermophoresis (MST), GTP affinity; assay type: binding
Excerpt: as §4, §5, §6

K-Ras (G12D) [13] = target: T5, K-Ras (G12D); test: MicroScale Thermophoresis (MST), GTP affinity; assay type: binding
Excerpt: as §4, §5, §6

Rho-A [14] = target: T1, Rho-A; test: MicroScale Thermophoresis (MST), GTP affinity; assay type: binding
Excerpt: as §4, §5, §6

K-Ras (G12C) [15] = target: T6, K-Ras (G12C); test: MicroScale Thermophoresis (MST), GTP affinity; assay type: binding
Excerpt: as §4, §5, §6

[16] = target: GTP binding domain of Ras; conditions: literature (Feuerstein 1987; John 1990); cited from earlier work
Rac-1 and Rho-A = test: SPA and MST studies, GTP affinity for Rho subfamily members; conditions: read-out: affinity of GTP for the binding domain of Rho subfamily members
Excerpt: as §5, §6

GTP-bound RAS [17] = test: Cell-based Ras-GTP pulldown assay, NCI H1975; conditions: Homo sapiens
Protocol: (§7) Cell lines: Human NSCLC cells NCI-H1975, and tumor-derived pancreatic cancer cell lines Panc-1, and MIA-PaCa-2, were all purchased from American Type Culture Collection and grown in complete RPMI medium (NCI-H1975) or DMEM-High Glucose (Panc1 and MIA-PaCa-2), supplemented with penicillin (100 U/mL), streptomycin (100 μg/mL), and 10% heat-inactivated FBS at 37° C. in a humidified incubator with 5% CO2.
(§8) Method: Cells were plated at 2·10^6 cells/well density in a 6-well plate, allowed 3 hours to adhere to the plate, then starved in the appropriate medium in the presence of 0.5% FBS overnight. The small molecules to be tested were added to the cells in the final concentration of 10 μM in the presence of 0.3% DMSO for 6 hours incubation at 37° C. For IC50 value determination, serial dilutions of compounds were added to cells under the same conditions. Next, cells were stimulated with 5 ng/mL EGF for 5 minutes, rinsed with ice-cold PBS and then lysed with 500 μL of lysis/binding/wash buffer (25 mM Tris-HCl, pH 7.2, 150 mM NaCl, 5 mM MgCl2, 5% glycerol, 1% NP40) from Active Ras Detection kit (Cell signaling Technology, #8821) supplemented with Halt™ Protease & Phosphatase Inhibitor Cocktail (Thermo Scientific). To account for significant differences in cell number due to the treatment, a small sample of lysate was saved for protein quantification and the rest of the lysate was snap frozen. Protein concentration was assessed by BCA protein assay (Thermo Scientific). To ensure that equal amount of protein undergoes RBD pulldown, lysates were subsequently thawed (at RT) and adjusted to 1 mg/mL with lysis/binding/wash buffer (0.5 mL volume). Equal amounts of lysate were then added to 0.5 mL lysis buffer containing RAF-RBD (1 mL total volume). Lysates were vortexed, incubated for 10 min on ice and subsequently pre-cleared at 14,000 rpm for 5 min at 4° C. 90% of the pre-cleared lysates were subsequently added to pre-washed glutathione agarose beads from Active Ras Detection kit (Cell signaling Technology, #8821) for 1 hour at 4 °C under constant rocking. The beads were subsequently pelleted, washed 3 times with lysis/binding/wash buffer, and eluted for western blotting with 50 μL of 1×SDS-PAGE sample buffer. Level of GTP-bound RAS was determined by western blot.
(§9) Western blot protocol: Equal volumes of eluate (25 μL) were separated by 16% SDS-PAGE and transferred to nitrocellulose membranes (Invitrogen by Thermo Fisher Scientific). The membrane was stained with Ponceau S Stain (Boston BioProducts) to verify uniform protein loading. […]

GTP-bound RAS [18] = test: Cell-based Ras-GTP pulldown assay, MIA PaCa-2; conditions: Homo sapiens
Protocol: as §7, §8
Western blot protocol: Equal volumes of eluate (25 μL) were separated by 16% SDS-PAGE and transferred to nitrocellulose membranes (Invitrogen by Thermo Fisher Scientific). The membrane was stained with Ponceau S Stain (Boston BioProducts) to verify uniform protein loading. Membranes were blocked with 5% BSA in TBST and then incubated overnight at 4° C. with anti-RAS mouse monoclonal antibody from the Active Ras Detection kit (Cell signaling Technology, #8821), followed by HRP-conjugated secondary antibody (Jackson Immunoresearch, West Grove, PA). Membranes were incubated in Amersham ECL Prime Western Blotting Detection Reagent (GE Healthcare) and bands were visualized using the ChemiDoc MP imaging system (Bio-Rad).

GTP-bound RAS [19] = test: Cell-based Ras-GTP pulldown assay, PANC-1; conditions: Homo sapiens
Protocol: as §7, §8, §9

[20] = system: NCI H1975 non-small-cell lung cancer cell line; test: Cell proliferation assay (DAPI); assay type: cell-based; conditions: Homo sapiens
Procedure, shortened: (§10)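 After 2–4 days' exposure at 37 °C to 10 µM compound or serial dilutions (IC50), in 0.3% DMSO with 10% FBS, cells were acetone–methanol fixed and DAPI-stained for total DNA, read at 358 nm ex/461 nm em. Media: RPMI for NCI-H1975 and BxPC3, DMEM-high glucose for PANC-1 and MIA PaCa-2.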

[21] = system: PANC-1 pancreatic cancer cell line; test: Cell proliferation assay (DAPI); assay type: cell-based; conditions: Homo sapiens
Procedure, shortened: as §10

[22] = system: NCI H1299 non-small-cell lung cancer cell line; test: Cell proliferation assay (DAPI); assay type: cell-based; conditions: Homo sapiens
[23] = system: MIA PaCa-2 pancreatic cancer cell line; test: Cell proliferation assay (DAPI); assay type: cell-based; conditions: Homo sapiens, MIA PaCa-2
Procedure, shortened: as §10

[24] = system: BxPC3 pancreatic cancer cell line; test: Cell proliferation assay (DAPI); assay type: cell-based; conditions: Homo sapiens, BXPC-3
Procedure, shortened: as §10

[25] = 10 μM, 6 hours, EGF stimulation

COCCNc1nc(-c2nccn2C)nc2sc(-c3cccc(OC)c3Cl)c(-c3ccccc3)c12 [drawing 476]
IC50 (MEK phosphorylation [1]): 750 to 1000 nM
IC50 (MEK phosphorylation [2]): 750 to 1000 nM
IC50 (MEK phosphorylation [3]): > 1000 nM

Nc1nc2c(ncn2[C@@H]2O[C@H](COP(=O)(O)OP(=O)(O)OP(=O)(O)O)[C@@H](O)[C@H]2O)c(=O)[nH]1 [GTP]
Kd (Rho-A [4]): 129 ± 12 nM
Kd (Rac-1 [5]): 151 ± 14 nM
Kd (K-Ras (Q61H) [6]): 118 ± 11 nM
Kd (K-Ras (wild type) [7]): 243 ± 15 nM
Kd (K-Ras (G12D) [8]): 270 ± 15 nM
Kd (K-Ras (G12C) [9]): 258 ± 18 nM
Kd (K-Ras GTP binding domain): 100 to 465 nM
Kd (Rac-1 [10]): 166 ± 10 nM
Kd (K-Ras (Q61H) [11]): 157 ± 21 nM
Kd (K-Ras (wild type) [12]): 463 ± 2 nM
Kd (K-Ras (G12D) [13]): 244 ± 12 nM
Kd (Rho-A [14]): 130 ± 5 nM
Kd (K-Ras (G12C) [15]): 207 ± 46 nM
affinity for the GTP binding domain of Ras [16]: single to double digit picomolar
Kd (Rac-1 and Rho-A): 120 to 170 nM

CO[C@H]1CCC(Nc2nc(-c3nccn3C)nc3sc(-c4ccn(C)n4)c(-c4ccccc4)c23)C1 (stereo partly drawn) [drawing 478]
IC50 (MEK phosphorylation [1]): > 1000 nM
IC50 (MEK phosphorylation [2]): 750 to 1000 nM
IC50 (MEK phosphorylation [3]): > 1000 nM

COCCNc1nc(-c2nccn2C)nc2sc(-c3cccc(OC)c3Cl)c(-c3ccccc3)c12 [drawing 1076]
inhibition at 10 µM (GTP-bound RAS [17]; [25]): 76 to 100%
inhibition at 10 µM (GTP-bound RAS [18]; [25]): 76 to 100%
inhibition at 10 µM (GTP-bound RAS [19]; [25]): 76 to 100%

CO[C@@H]1CCC(Nc2nc(-c3nccn3C)nc3sc(-c4ccn(C)n4)c(-c4ccccc4)c23)C1 (stereo partly drawn) [drawing 549]
IC50 [20]: 750 to 1000 nM
IC50 [21]: 750 to 1000 nM
IC50 [22]: 750 to 1000 nM
IC50 [23]: 750 to 1000 nM
inhibition at 10 µM ([23]; 10 μM, 2-4 days, read-out: % Inhibition of cell proliferation, MIA PaCa-2 % inh): 76 to 100%
IC50 [24]: 750 to 1000 nM

COCCNc1nc(-c2nccn2C)nc2sc(-c3cccc(OC)c3Cl)c(-c3ccccc3)c12 [drawing 1079]
IC50 (GTP-bound RAS [17]): > 1000 nM
IC50 (GTP-bound RAS [18]): 750 to 1000 nM
IC50 (GTP-bound RAS [19]): 750 to 1000 nM
